# Measurements taken from patent US20220117884A1, “Methods and Compostitions for Enhancing the Viability of Microneedle Pores” (priority 2007, published 2022).
# How the values were obtained:
# [1] = hairless guinea pigs, after microneedle exposure and occlusion; cited from earlier work
# [2] = Transepidermal water loss (TEWL) study of microneedle pore viability with COX inhibitor gels under occlusion; type: in vivo; conditions: gel re-applied daily under occlusion; 5 day study, trial 2
# Description: Two trials were completed with subject 1 and one trial was completed with subject 2. During the initial trial, subject one was tested for 7 days with only Solaraze® Gel. 100 microneedle arrays were placed on each test site and covered with gel. The gel was then protected with an occlusive backing membrane (3M™ Scotchpak™ 9733 2.05 mil polyester film, St. Paul, Minn.) and secured to the test site with Bioclusive* tape (Johnson and Johnson Medical Ltd, Gargrave, Skipton, UK). Along with gel test sites, control sites with and without microneedle insertions were tested minus gel. The control sites were treated in the same manner with gel minus the 100 microneedle insertions. The initial trial lasted for 7 days followed by a 5 day study.
# In trial 2, the same procedure was performed on a different test and control sites using each of the following gel formulations: placebo, Solaraze® Gel, 3% diclofenac, 3% celecoxib, 10% ibuprofen, 10% ketoprofen, and controls with and without microneedle treatment. Each day, the protective covering was removed, areas were blotted 3 times with a Kimwipe® (Kimberly-Clark, Roswell, Ga.) to remove gel and trapped moisture and TEWL readings were made with an RG1 Evaporimeter (cyberDERM, Broomall, Pa.). The treated areas had the formula re-applied and immediately covered to prevent closure of the microneedle created pores.
# [3] = used in conjunction with microneedles; cited from earlier work
compound,measurement,setting,value
Cl.Oc1ccc2c3c1O[C@H]1[C@H](O)CC[C@@]4(O)[C@@H](C2)N(CC2CC2)CC[C@]314 [6(3-naltrexol hydrochloride],duration of significant enhancement in microneedle pore viability compared to untreated skin,[1],48 h
O=C(O)Cc1ccccc1Nc1c(Cl)cccc1Cl [diclofenac],"enhancement in pore viability (TEWL), microneedle-treated areas versus control areas",[2],enhanced viability of microneedle pores
O=C1CC[C@@]2(O)[C@H]3Cc4ccc(O)c5c4[C@@]2(CCN3CC2CC2)[C@H]1O5 [naltrexone],time for which steady state naltrexone concentrations remained,[3],48 h
same,time until steady state naltrexone concentrations were achieved,[3],two
